These results are taken from patent US6534524B1, “Indazole compounds and pharmaceutical compositions for inhibiting protein kinases, and methods for their use” (Agouron Pharmaceuticals, Inc., priority 1999, dated 2003).

Series [1] is described as follows: Determination of inhibitor concentration in mouse plasma after intraperitoneal and oral dosing. Format: in vivo. The procedure: Blood collection was via ocular bleed at 0.5, 1, 4 hr with the final time point, 7 hour, via intracardiac puncture. The blood was centrifuged to collect plasma, which was then stored at −80° C. until analysis. Samples were prepared for analysis using an internal standard and sodium hydroxide. After vortexing, ethyl acetate was added and mixed for 15-20 minutes at ambient temperature. […] The samples were then analyzed via HPLC or LC-MS. Compound levels were quantitated by generating a standard curve of known compound concentration in mouse plasma.

For series [2], the system named is human umbilical vein endothelial cells (HUVEC). Nature of the series: HUVEC proliferation assay (VEGF-stimulated, MTT).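 As to % inhibition of the proliferation of HUVEC: relative to VEGF-stimulated control minus starvation-medium baseline.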 Format: cell-based. To be noted: crude reaction mixtures; for % inhibition: Library III, HUVEC proliferation, nominal concentration of 0.5 nM.
The mark [3] stands for this setting: PO, 10 mg/kg, vehicle PEG400:H2O pH 2.3 60:40.
The mark [4] stands for this setting: PO, 25 mg/kg, vehicle PEG400:H2O pH 2.3 30:70.
Where [5] appears, read: female, PO, 25 mg/kg, vehicle PEG400:H2O pH 2.3 30:70, read-out: Cmin (7 hr conc.).
The mark [6] stands for this setting: IP, 25 mg/kg, vehicle PEG400:H2O pH 2.3 60:40.
The mark [7] stands for this setting: PO, 50 mg/kg, vehicle PEG400:H2O pH 2.3 60:40.
[8] abbreviates: IP, 25 mg/kg, vehicle PEG400:H2O pH 2.3 30:70.
[9] abbreviates: PO, 50 mg/kg, vehicle PEG400:H2O pH 2.3 30:70.
The mark [10] stands for this setting: Library I, Y = CO, nominal concentration of 10 nM.
Setting [11] is: Library I, Y = NH, nominal concentration of 10 nM.
Setting [12] is: Library I, Y = O, nominal concentration of 10 nM.
Where [13] appears, read: Library II, Y=S, 0.5 mM (column head; text: nominal 0.5 nM).
[14] abbreviates: Library II, Y=S, 2 mM (column head; text: nominal 2 nM).

Like-named read-outs stand apart in the source and are kept apart here. Some results are limits rather than exact numbers.

In general, AUC(0-t) refers to exposure summed from dosing to a finite time, without extrapolation to infinity. Lower therefore signals low exposure. As usually defined, the Cmax is the highest concentration seen after dosing. By % inhibition is commonly meant the relative decrease from the control value, in per cent.

On to `Cc1cccc(C(=O)Nc2cccc(Oc3ccc4c(/C=C/c5ccccc5)n[nH]c4c3)c2)c1` [5b], for which, in series [1] (setting [3]), the AUClast turned out to be 61 ng·h/mL and the “plasma half-life (T1/2)” value is 3.1 h.

As for `CCn1nc(C)cc1C(=O)Nc1cccc(Oc2ccc3c(/C=C/c4cn(C)c(C)n4)n[nH]c3c2)c1` [Example 31(f), 6-[3-((1-Ethyl-3-methyl-1H-pyrazol]-5-yl)carboxanido)phenoxyl-3-E-[2-(1,2-dimethyl-1Himidazol-4-yl)ethenyl]-1H-indazole], in series [1] (setting [4]), the “plasma half-life (T1/2)” value is 2.6 h. In series [1] (female, PO, 25 mg/kg, vehicle PEG400:H2O pH 2.3 30:70), the AUC(0-t) was above 245 µg·h/mL. Further, the Cmax in series [1] (female, PO, 25 mg/kg, vehicle PEG400:H2O pH 2.3 30:70, read-out: Cmax) is above 50000 ng/mL. In addition, the concentration at 7 h in series [1] (setting [5]) amounted to 9520 ng/mL.

Take `Cc1ccc2cc(NC(=O)c3ccccc3Sc3ccc4c(/C=C/c5ccccn5)n[nH]c4c3)ccc2n1` [Example 33(b)]: in series [1] (setting [6]), the AUClast is 11245 ng·h/mL, the Cmax worked out at 1990 ng/mL and the “plasma half-life (T1/2)” value is 3.0 h. Moreover, in series [1] (setting [7]), the AUClast amounted to 3925 ng·h/mL, the maximum concentration (Cmax) amounted to 1496 ng/mL and the “plasma half-life (T1/2)” value came to 3.0 h. Besides, in series [1] (female, IP, 25 mg/kg, vehicle PEG400:H2O pH 2.3 60:40, read-out: Cmin (7 hr conc.)), the concentration at 7 h stood at 902 ng/mL. Also, the concentration at 7 h in series [1] (female, PO, 50 mg/kg, vehicle PEG400:H2O pH 2.3 60:40, read-out: Cmin (7 hr conc.)) turned out to be 76 ng/mL.

`CC(C)NC(=O)c1ccccc1Sc1ccc2c(/C=C/c3ccccn3)n[nH]c2c1` [Example 35(b), 6-[2-(i-Propylcarbamoyl)phenylsulfanyl]-3-E-[2-(pyridin-2-yl)ethenyl]-1H-indazole]: the AUClast in series [1] (setting [8]) was found to be 2840 ng·h/mL; in series [1] (setting [9]) it was 4048 ng·h/mL. The “plasma half-life (T1/2)” value in series [1] (setting [8]) and in series [1] (setting [9]) was 0.8 h each time. For the same molecule, the concentration at 7 h worked out at 12 ng/mL in series [1] (female, IP, 25 mg/kg, vehicle PEG400:H2O pH 2.3 30:70, read-out: Cmin (7 hr conc.)) and 13 ng/mL in series [1] (female, PO, 50 mg/kg, vehicle PEG400:H2O pH 2.3 30:70, read-out: Cmin (7 hr conc.)).

As for `O=C(NCCc1cccs1)c1ccccc1Sc1ccc2c(/C=C/c3ccccn3)n[nH]c2c1` [Example 35(hh), 6-[2-(2-(Thien-2-yl)ethylcarbamoyl)phenylsulfanyl]-3-E-[2-(pyridin-2-yl)ethenyl]-1H-indazole], in series [1] (setting [4]), the AUClast was determined as 292 ng·h/mL and the “plasma half-life (T1/2)” value worked out at 1.7 h. Besides, the concentration at 7 h in series [1] (setting [5]) is 5 ng/mL.

`Cc1cc(C(=O)Nc2cc(C(=O)c3ccc4c(/C=C/c5ccccn5)n[nH]c4c3)ccc2C)n(C)n1` [Example 41(hh), 6-[3-((1,3-Dimethyl-1H-pyrazol-5-yl)carboxaindo)-4-methylbenzoyl]-3-E-[2-(pyridin-2-yl)ethenyl]-1H-indazole]: in series [1] (setting [4]), the AUClast amounted to 5601 ng·h/mL, the maximum concentration (Cmax) came out at 1526 ng/mL and the “plasma half-life (T1/2)” value came to 7.9 h. For the same molecule, the concentration at 7 h in series [1] (setting [5]) stood at 405 ng/mL.

Consider `Cc1cc(C(=O)Nc2cccc(C(=O)c3ccc4c(/C=C/c5ccccn5)n[nH]c4c3)c2)cc(Cl)n1` [Example 41(q), 6-[3-((2-Chloro-6-methylpyridin-4-yl)carboxanlido)benzoyl]-3-E-[2-(pyridin-2-yl)ethenyl]-1H-indazole], for which the “plasma half-life (T1/2)” value in series [1] (setting [4]) stood at 5.2 h. The same molecule gave an AUC(0-t) in series [1] (female, IP, 25 mg/kg, vehicle PEG400:H2O pH 2.3 30:70) above 27 µg·h/mL.

Turning to `O=C(Nc1cnccn1)c1ccc2c(-c3nc4ccccc4[nH]3)n[nH]c2c1` [drawing 595], the “% inhibition of the proliferation of HUVEC” value (“% inhibition … of HUVEC” below) in series [2] (setting [10]) is −11%; in series [2] (setting [11]), −7%; in series [2] (setting [12]), 52%.

As to `O=C(Nc1ncnc2[nH]cnc12)c1ccc2c(-c3nc4ccccc4[nH]3)n[nH]c2c1` [drawing 600], the “% inhibition … of HUVEC” value in series [2] (setting [10]) is on record as 27%; in series [2] (setting [11]), −9%; in series [2] (setting [12]), 52%.

Consider `COc1ccc(NC(=O)c2ccc3c(-c4nc5ccccc5[nH]4)n[nH]c3c2)cc1O` [drawing 607], for which the “% inhibition … of HUVEC” value in series [2] (setting [13]) turned out to be 19%; in series [2] (setting [14]), 89%.

For `COC(=O)c1ccc(NC(=O)c2ccc3c(-c4nc5ccccc5[nH]4)n[nH]c3c2)o1` [drawing 608], the results for the “% inhibition … of HUVEC” value in series [2] (setting [13]) and in series [2] (setting [14]) were 38% and 2%, respectively.

`C=CCC(NC(=O)c1ccc2c(-c3nc4ccccc4[nH]3)n[nH]c2c1)c1ccccn1` (stereo not shown) [drawing 609]: the results for the “% inhibition … of HUVEC” value in series [2] (setting [13]) and in series [2] (setting [14]) were 37% and 16%, respectively.

Turning to `COC(=O)c1cc(NC(=O)c2ccc3c(-c4nc5ccccc5[nH]4)n[nH]c3c2)ccc1O` [drawing 610], the “% inhibition … of HUVEC” value in series [2] (setting [13]) turned out to be 39%; in series [2] (setting [14]) it was 15%.

Consider `CC(C)CCNC(=O)c1ccccc1Sc1ccc2c(/C=C/c3ccccn3)n[nH]c2c1` [drawing 614], for which the entries for the “% inhibition … of HUVEC” value in series [2] (setting [13]) and in series [2] (setting [14]) were 14% and 55%, respectively.

For `O=C(NCC(F)(F)F)c1ccccc1Sc1ccc2c(/C=C/c3ccccn3)n[nH]c2c1` [drawing 626], the “% inhibition … of HUVEC” value in series [2] (setting [13]) amounted to 34%; in series [2] (setting [14]), 61%.

Take `CNC(=O)c1ccccc1Sc1ccc2c(/C=C/c3ccccn3)n[nH]c2c1` [drawing 635]: the results for the “% inhibition … of HUVEC” value in series [2] (setting [13]) and in series [2] (setting [14]) were 8% and 21%, respectively.

As to `CC(C)(C)CNC(=O)c1ccccc1Sc1ccc2c(/C=C/c3ccccn3)n[nH]c2c1` [drawing 687], the “% inhibition … of HUVEC” value in series [2] (setting [13]) is on record as 5%; in series [2] (setting [14]), −6%.

On to `O=C(NCC1(O)CCCCC1)c1ccccc1Sc1ccc2c(/C=C/c3ccccn3)n[nH]c2c1` [drawing 688], for which the “% inhibition … of HUVEC” value in series [2] (setting [13]) was 26%; in series [2] (setting [14]), −19%.

For the molecule `CCNC(=O)c1ccccc1Sc1ccc2c(/C=C/c3ccccn3)n[nH]c2c1` [drawing 696], the “% inhibition … of HUVEC” value is 16% in series [2] (setting [13]) and 17% in series [2] (setting [14]).

With `CC(C)(C)CNC(=O)c1ccccc1Sc1ccc2c(/C=C/c3ccccn3)n[nH]c2c1` [drawing 728], the “% inhibition … of HUVEC” value is given as 19% in series [2] (setting [13]) and 24% in series [2] (setting [14]).

On to `CCOCCNC(=O)c1ccccc1Sc1ccc2c(/C=C/c3ccccn3)n[nH]c2c1` [drawing 732], for which the figures for the “% inhibition … of HUVEC” value in series [2] (setting [13]) and in series [2] (setting [14]) were 53% and 75%, respectively.

For the molecule `O=C(Nc1nccs1)c1ccccc1Sc1ccc2c(/C=C/c3ccccn3)n[nH]c2c1` [drawing 740], the “% inhibition … of HUVEC” value came out at 33% in series [2] (setting [13]) and 94% in series [2] (setting [14]).

Take `O=C(NCC1CC1)c1ccccc1Sc1ccc2c(/C=C/c3ccccn3)n[nH]c2c1` [drawing 758]: the “% inhibition … of HUVEC” value is 35% in series [2] (setting [13]) and 69% in series [2] (setting [14]).

On to `O=C(NNc1ccccn1)c1ccccc1Sc1ccc2c(/C=C/c3ccccn3)n[nH]c2c1` [drawing 760], for which the “% inhibition … of HUVEC” value in series [2] (setting [13]) is listed as 32%; in series [2] (setting [14]), 92%.

`Cc1ccc(CNC(=O)c2ccccc2Sc2ccc3c(/C=C/c4ccccn4)n[nH]c3c2)o1` [drawing 763]: the “% inhibition … of HUVEC” value turned out to be 56% in series [2] (setting [13]) and 96% in series [2] (setting [14]).

For the molecule `O=C(NC1CCSC1=O)c1ccccc1Sc1ccc2c(/C=C/c3ccccn3)n[nH]c2c1` (stereo not shown) [drawing 785], the “% inhibition … of HUVEC” value in series [2] (setting [13]) is 25%; in series [2] (setting [14]) it was 40%.

Take `O=C(NCc1cccc(F)c1)c1ccccc1Sc1ccc2c(/C=C/c3ccccn3)n[nH]c2c1` [drawing 797]: the “% inhibition … of HUVEC” value in series [2] (setting [13]) came to 81%; in series [2] (setting [14]) it was 95%.

With `CC(C)CC(CO)NC(=O)c1ccccc1Sc1ccc2c(C=Cc3ccccn3)n[nH]c2c1` (stereo not shown) [drawing 1015], the “% inhibition” value in series [2] (0.0005 µM) was −13%.

Consider `CC(C)CC(CO)NC(=O)c1ccccc1Sc1ccc2c(C=Cc3ccccn3)n[nH]c2c1` (stereo not shown) [drawing 1021], for which the “% inhibition” value in series [2] is on record as −2%.

As to `O=C(Nc1cccc(Cl)c1)c1ccccc1Sc1ccc2c(/C=C/c3ccccn3)n[nH]c2c1` [drawing 1041], the “% inhibition” value in series [2] is reported as −15%.

As to `O=C(NC1CC1)c1ccccc1Sc1ccc2c(/C=C/c3ccccn3)n[nH]c2c1` [drawing 1069], in series [2], the “% inhibition” value was 29%.

For `C#CCNC(=O)c1ccccc1Sc1ccc2c(/C=C/c3ccccn3)n[nH]c2c1` [drawing 1123], the “% inhibition” value in series [2] was 9%.

With `O=C(Nc1ccccc1)c1ccccc1Sc1ccc2c(/C=C/c3ccccn3)n[nH]c2c1` [drawing 1131], the “% inhibition” value in series [2] is reported as 11%.

Take `O=C(NC1CCSC1=O)c1ccccc1Sc1ccc2c(/C=C/c3ccccn3)n[nH]c2c1` (stereo not shown) [drawing 1141]: the “% inhibition” value in series [2] was −8%.

Consider `O=C(NCC1(O)CCCCC1)c1ccccc1Sc1ccc2c(/C=C/c3ccccn3)n[nH]c2c1` [drawing 1197], for which the “% inhibition” value in series [2] was 2%.
